Data as given in PubChem BioAssay (NCI).
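Cultured in 96-well plates, cells were exposed to test compound for 48 hours across five concentrations. TGI is the concentration that stops growth completely.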

Assays:
Experiment in all cases: growth of human tumour cells (NCI), 48 h
U251 CNS = system: U251 CNS
HL-60(TB) leukemia = system: HL-60(TB) leukemia
MOLT-4 leukemia = system: MOLT-4 leukemia
HCT-116 colon = system: HCT-116 colon
NCI-H23 lung = system: NCI-H23 lung
RXF 393 renal = system: RXF 393 renal
K-562 leukemia = system: K-562 leukemia
HOP-62 NSCLC = system: HOP-62 NSCLC
HCC-2998 colon = system: HCC-2998 colon
EKVX NSCLC = system: EKVX NSCLC
CAKI-1 renal = system: CAKI-1 renal
SF-539 CNS = system: SF-539 CNS
COLO 205 colon = system: COLO 205 colon
HT29 colon = system: HT29 colon
LOX IMVI melanoma = system: LOX IMVI melanoma
UO-31 renal = system: UO-31 renal
SK-MEL-2 melanoma = system: SK-MEL-2 melanoma

Compound	TGI (U251 CNS) [µM]	TGI (HL-60(TB) leukemia) [µM]	TGI (MOLT-4 leukemia) [µM]	TGI (HCT-116 colon) [µM]	TGI (NCI-H23 lung) [µM]	TGI (RXF 393 renal) [µM]	TGI (K-562 leukemia) [µM]	TGI (HOP-62 NSCLC) [µM]	TGI (HCC-2998 colon) [µM]	TGI (EKVX NSCLC) [µM]	TGI (CAKI-1 renal) [µM]	TGI (SF-539 CNS) [µM]	TGI (COLO 205 colon) [µM]	TGI (HT29 colon) [µM]	TGI (LOX IMVI melanoma) [µM]	TGI (UO-31 renal) [µM]	TGI (SK-MEL-2 melanoma) [µM]
Cc1cccc(C)c1NC(=O)CCC(=O)NC(N)=S	> 100	> 100	> 100	> 100	> 100	> 100	> 100	> 100	> 100	> 100	> 100	> 100	> 100	> 100	> 100	> 100	
O=C(O)Cn1c(=O)[nH]c(=O)c2[nH]cnc21	> 100	> 100	> 100	> 100	> 100	> 100	> 100	> 100	> 100	> 100		> 100	> 100	> 100	> 100	> 100	> 100
CCc1cccc(C(C)CC)c1NC(=O)C(=O)C(CC(=O)Nc1ccc(Cl)c(Cl)c1)C(=O)OC (stereo not given)	> 100	> 100	> 100	> 100	> 100	> 100	> 100	> 100	> 100	> 100	> 100	> 100	> 100	> 100		> 100	> 100
Cc1nc2c(n1CCN(C)C)C(=O)c1ccccc1C2=O	32.2	30.7	62.1	33	24.5	68.2	48.4	78.7	47.7	32.2		46.3	16.5	65.1	39.1	49	26.2
CC(C(=O)c1ccc(Cl)cc1)C1OC(=O)C(Cl)=C1Cl (stereo not given)	> 100	47.6	64		71.1	35.4	58.8	> 100	63.5	> 100		70.9	51	> 100	47.3	> 100	48.9
N#CC(C(=N/NC(N)=S)/C(=N/NC(N)=S)C(C#N)c1ccc(Cl)cc1)c1ccc(Cl)cc1 (stereo not given)	> 100		> 100	> 100	> 100	> 100	> 100	> 100	> 100	> 100		> 100	> 100	> 100	> 100	> 100	> 100
CSc1nc2c(c(O)c(C)c(=O)n2C2OCC(OC(C)=O)C(OC(C)=O)C2OC(C)=O)c(=O)n1C (stereo not given)	> 100	> 100	> 100	> 100	> 100		> 100	> 100			> 100	> 100	> 100	> 100	> 100	> 100	> 100
COC(=O)C1N=CSCC1(C)O (stereo not given)		> 100	> 100	> 100	> 100	> 100	> 100	> 100	> 100	> 100	> 100	> 100	> 100	> 100	> 100	> 100	> 100
COC(=O)NC(=O)c1cn(CCCOC(=O)CCCCCCCCC(=O)OCCCn2cc(C(=O)NC(=O)OC)c(=O)[nH]c2=O)c(=O)[nH]c1=O		> 100	> 100	> 100	> 100	75	> 100	78.5	> 100	> 100	> 100	> 100		> 100	> 100	> 100	> 100
CCN(CC)Cc1cc(Nc2c3ccccc3nc3c4ccccc4n(C)c23)ccc1O	22.7	12.9	8.47	19.5	30.3	25.5	7.65	24.3		29.7	26	10.9	17.1	17.8	9.1	22.8	36.2
COc1ccc(NC(=O)CC(=O)N/N=C/c2ccc(N(CCC#N)S(=O)(=O)c3ccccc3)cc2)cc1	> 100	> 100	> 100	> 100	> 100		> 100	> 100	> 100	> 100	> 100		> 100	> 100	> 100	> 100	> 100
